The record followed here is patent US20230117470A1, “SUBSTITUTED PYRAZOLE COMPOUNDS AS TOLL RECEPTOR INHIBITORS” (BRISTOL-MYERS SQUIBB COMPANY, priority 2019, published 2023).

Holding throughout (type): cell-based
For one test, the target named is T1, human TLR7 (Homo sapiens, UniProt Q9NYK1).
T1 construct: host or cells: HEK-Blue cells
T1 sequence (Q9NYK1 27-1049): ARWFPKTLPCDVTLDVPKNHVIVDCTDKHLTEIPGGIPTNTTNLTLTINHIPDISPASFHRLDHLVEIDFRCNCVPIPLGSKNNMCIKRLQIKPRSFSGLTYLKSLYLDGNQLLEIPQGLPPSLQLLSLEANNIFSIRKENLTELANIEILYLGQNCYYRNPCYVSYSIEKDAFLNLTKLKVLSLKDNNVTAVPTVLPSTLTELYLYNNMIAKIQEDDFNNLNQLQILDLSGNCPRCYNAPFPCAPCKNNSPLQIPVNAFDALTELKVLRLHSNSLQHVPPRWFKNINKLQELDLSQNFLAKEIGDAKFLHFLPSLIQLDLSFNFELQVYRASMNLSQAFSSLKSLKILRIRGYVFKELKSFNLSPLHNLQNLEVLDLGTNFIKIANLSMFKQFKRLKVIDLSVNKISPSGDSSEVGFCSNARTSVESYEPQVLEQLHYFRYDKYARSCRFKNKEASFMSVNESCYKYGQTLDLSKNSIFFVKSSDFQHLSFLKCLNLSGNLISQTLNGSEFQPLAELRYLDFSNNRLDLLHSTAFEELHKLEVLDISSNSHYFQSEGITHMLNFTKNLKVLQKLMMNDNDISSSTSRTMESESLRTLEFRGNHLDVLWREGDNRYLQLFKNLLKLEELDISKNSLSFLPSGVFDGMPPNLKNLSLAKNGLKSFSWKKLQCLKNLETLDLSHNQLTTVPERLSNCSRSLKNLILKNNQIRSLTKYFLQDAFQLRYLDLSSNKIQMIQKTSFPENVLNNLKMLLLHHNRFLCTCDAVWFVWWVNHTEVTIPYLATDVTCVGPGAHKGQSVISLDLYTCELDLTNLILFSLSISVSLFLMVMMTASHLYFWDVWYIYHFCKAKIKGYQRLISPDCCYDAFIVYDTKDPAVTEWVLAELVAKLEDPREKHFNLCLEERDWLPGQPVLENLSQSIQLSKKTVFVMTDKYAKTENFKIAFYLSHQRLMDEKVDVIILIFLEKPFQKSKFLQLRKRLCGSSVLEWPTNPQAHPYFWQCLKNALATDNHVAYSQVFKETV
The test can be described thus: TLR7 inhibition reporter assay (HEK-Blue cells, SEAP reporter, gardiquimod stimulation). As to conditions: HEK-Blue cells overexpressing human TLR7, SEAP reporter, gardiquimod 7.5 μM. The method, then:
(§1) TLR7/8/9 Inhibition Reporter Assays
(§2) HEK-Blue™-cells (Invivogen) overexpressing human TLR7, TLR8 or TLR9 receptors were used for screening inhibitors of these receptors using an inducible SEAP (secreted embryonic alkaline phosphatase) reporter gene under the control of the IFN-β minimal promoter fused to five NF-κB and AP-1-binding sites. Briefly, cells are seeded into Greiner 384 well plates (15000 cells per well for TLR7, 20,000 for TLR8 and 25,000 for TLR9) and then treated with test compounds in DMSO to yield a final dose response concentration range of 0.05 nM-50 μM. After a 30 minute compound pre-treatment at room temperature, the cells are then stimulated with a TLR7 ligand (gardiquimod at a final concentration of 7.5 μM), TLR8 ligand (R848 at a final concentration of 15.9 μM) or TLR9 ligand (ODN2006 at a final concentration of 5 nM) to activate NF-κB and AP-1 which induce the production of SLA After a 22 hour incubation at 37° C., […], SEAP levels are determined with the addition of HEK-Blue™ Detection reagent (Invivogen), a cell culture medium that allows for detection of SLAP, according to manufacturer's specifications. The percent inhibition is determined as the % reduction in the HEK-Blue signal present in wells treated with agonist plus DMSO alone compared to wells treated with a known inhibitor.
(In a reporter assay the amount or activity of a reporter protein is the signal.)

The next test addresses T2, human TLR8 (Homo sapiens, UniProt Q9NR97).
T2 construct: host or cells: HEK-Blue cells
T2 sequence (Q9NR97 27-1041): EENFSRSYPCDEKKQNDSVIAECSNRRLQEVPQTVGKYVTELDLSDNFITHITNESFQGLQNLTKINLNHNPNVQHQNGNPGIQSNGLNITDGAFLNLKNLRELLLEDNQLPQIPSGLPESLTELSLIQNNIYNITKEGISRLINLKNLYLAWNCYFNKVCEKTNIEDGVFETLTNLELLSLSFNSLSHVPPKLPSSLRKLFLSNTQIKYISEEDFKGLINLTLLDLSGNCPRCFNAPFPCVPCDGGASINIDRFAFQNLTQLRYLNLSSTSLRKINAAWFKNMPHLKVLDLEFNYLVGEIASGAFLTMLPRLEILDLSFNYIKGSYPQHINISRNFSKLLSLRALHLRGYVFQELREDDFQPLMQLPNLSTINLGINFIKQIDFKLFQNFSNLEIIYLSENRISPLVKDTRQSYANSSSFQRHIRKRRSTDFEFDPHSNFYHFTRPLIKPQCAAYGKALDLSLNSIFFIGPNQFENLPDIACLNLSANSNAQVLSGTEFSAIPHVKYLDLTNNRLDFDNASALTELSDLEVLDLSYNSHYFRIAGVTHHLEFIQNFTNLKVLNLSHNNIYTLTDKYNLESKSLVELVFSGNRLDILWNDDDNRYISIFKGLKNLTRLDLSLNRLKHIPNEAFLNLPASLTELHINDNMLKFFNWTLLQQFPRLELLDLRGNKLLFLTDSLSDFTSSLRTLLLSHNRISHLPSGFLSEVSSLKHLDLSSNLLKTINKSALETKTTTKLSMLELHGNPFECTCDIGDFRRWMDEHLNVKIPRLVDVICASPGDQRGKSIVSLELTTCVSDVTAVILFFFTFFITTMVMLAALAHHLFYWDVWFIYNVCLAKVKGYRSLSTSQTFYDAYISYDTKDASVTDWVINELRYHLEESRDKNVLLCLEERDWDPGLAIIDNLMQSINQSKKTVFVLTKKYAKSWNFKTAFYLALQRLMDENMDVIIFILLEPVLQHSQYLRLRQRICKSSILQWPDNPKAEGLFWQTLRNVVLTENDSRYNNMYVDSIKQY
The test can be described thus: TLR8 inhibition reporter assay (HEK-Blue cells, SEAP reporter, R848 stimulation). The note with it: HEK-Blue cells overexpressing human TLR8, SEAP reporter, R848 15.9 μM. The method, then:
as §1, §2

The target of another test is T3, human TLR9 (Homo sapiens, UniProt Q9NR96).
T3 construct: host or cells: HEK-Blue cells
T3 sequence (Q9NR96 26-1032): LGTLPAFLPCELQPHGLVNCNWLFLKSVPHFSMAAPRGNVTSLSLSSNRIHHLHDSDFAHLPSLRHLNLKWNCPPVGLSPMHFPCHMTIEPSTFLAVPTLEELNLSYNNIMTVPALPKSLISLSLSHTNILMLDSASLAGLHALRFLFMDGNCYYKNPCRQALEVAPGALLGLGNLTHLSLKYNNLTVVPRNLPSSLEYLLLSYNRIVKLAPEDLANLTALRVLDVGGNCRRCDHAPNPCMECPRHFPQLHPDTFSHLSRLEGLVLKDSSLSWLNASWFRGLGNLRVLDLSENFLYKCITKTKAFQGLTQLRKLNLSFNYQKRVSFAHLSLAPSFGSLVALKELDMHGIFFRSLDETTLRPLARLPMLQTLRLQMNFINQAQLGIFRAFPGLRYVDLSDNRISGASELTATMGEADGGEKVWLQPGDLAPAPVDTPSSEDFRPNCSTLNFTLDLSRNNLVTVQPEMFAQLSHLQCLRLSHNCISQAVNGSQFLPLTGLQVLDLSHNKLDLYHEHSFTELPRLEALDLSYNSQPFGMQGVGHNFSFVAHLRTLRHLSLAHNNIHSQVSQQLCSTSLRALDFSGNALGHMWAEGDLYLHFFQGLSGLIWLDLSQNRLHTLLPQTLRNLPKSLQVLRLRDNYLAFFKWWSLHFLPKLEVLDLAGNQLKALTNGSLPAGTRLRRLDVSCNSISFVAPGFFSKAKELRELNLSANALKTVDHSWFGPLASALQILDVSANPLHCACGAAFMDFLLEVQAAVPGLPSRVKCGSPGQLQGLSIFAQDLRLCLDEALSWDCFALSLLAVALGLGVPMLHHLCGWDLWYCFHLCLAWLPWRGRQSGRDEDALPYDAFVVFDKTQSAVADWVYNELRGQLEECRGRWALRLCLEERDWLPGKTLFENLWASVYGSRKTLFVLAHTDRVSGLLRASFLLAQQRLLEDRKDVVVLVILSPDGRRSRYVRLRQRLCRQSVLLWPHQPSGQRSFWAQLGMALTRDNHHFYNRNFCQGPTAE
Nature of the test: TLR9 inhibition reporter assay (HEK-Blue cells, SEAP reporter, ODN2006 stimulation). The note with it: HEK-Blue cells overexpressing human TLR9, SEAP reporter, ODN2006 5 nM. The method, then:
as §1, §2

Consider `Cc1cc(-c2[nH]nc(C3CCC(NCC(F)F)CC3)c2C(C)C)cn2ncnc12` (single isomer, unassigned) [Example 279, N-(2,2-difluoroethyl)-4-(4-isopropyl-5-(8-methyl-[1,2,4]triazolo[1,5-a]pyridin-6-yl)-1H-pyrazol-3-yl)cyclohexan-1-amine], for which the IC50 – broadly, the concentration needed to halve the response being measured – on human TLR7 came to 11 nM; at human TLR8, 1.08 nM; against human TLR9 it was 23900 nM.
For `Cc1cc(-c2[nH]nc(C3CCC(NCC4(C)COC4)CC3)c2C(C)C)cn2ncnc12` (single isomer, unassigned) [Example 280], in that order: 1.26 nM, 0.73 nM and 4960 nM.
Taken in the same sequence, the figures for `Cc1cc(-c2[nH]nc(C3CCC(NCC4(C)COC4)CC3)c2C(C)C)cn2ncnc12` (single isomer, unassigned) [Example 281] were 9.49 nM, 0.45 nM and 42600 nM.
`CCN(C)C1CCC(c2n[nH]c(-c3cc(C)c4ncnn4c3)c2C(C)C)CC1` (single isomer, unassigned) [Example 282]: the half-inhibitory concentration (IC50) at human TLR7 was 29.8 nM; against human TLR8 it was 5.33 nM; against human TLR9, greater than 50000 nM.
On to `CCN(C)C1CCC(c2n[nH]c(-c3cc(C)c4ncnn4c3)c2C(C)C)CC1` (single isomer, unassigned) [Example 283], for which the IC50 against human TLR7 was 18.8 nM; on human TLR8, 1.7 nM; on human TLR9, greater than 50000 nM.
Taken in the same sequence, the figures for `Cc1cc(-c2[nH]nc(C3CCC(NCCN(C)C)CC3)c2C(C)C)cn2ncnc12` (single isomer, unassigned) [Example 284] were 9.6 nM, 5.12 nM and greater than 50000 nM.
On to `Cc1cc(-c2[nH]nc(C3CCC(NCCN(C)C)CC3)c2C(C)C)cn2ncnc12` (single isomer, unassigned) [Example 285], for which the IC50 against human TLR7 was 7.7 nM; on human TLR8, 2.71 nM; at human TLR9, greater than 50000 nM.
Taken in the same sequence, the figures for `Cc1cc(-c2[nH]nc(C3CCC(N4CCN(C)CC4)CC3)c2C(C)C)cn2ncnc12` (single isomer, unassigned) [Example 286] were 25.6 nM, 14.6 nM and greater than 50000 nM.
Turning to `Cc1cc(-c2[nH]nc(C3CCC(N4CCN(C)CC4)CC3)c2C(C)C)cn2ncnc12` (single isomer, unassigned) [Example 287], the IC50 against human TLR7 was found to be 13.3 nM; against human TLR8, 0.54 nM; at human TLR9, 29200 nM.
`Cc1cc(-c2[nH]nc(C3CCC(NC4CCN(C(C)C)CC4)CC3)c2C(C)C)cn2ncnc12` (single isomer, unassigned) [Example 288]: the IC50 came to 15.2 nM against human TLR7, 0.52 nM on human TLR8 and 14200 nM at human TLR9.
For the compound `Cc1cc(-c2[nH]nc(C3CCC(NC4CCN(C(C)C)CC4)CC3)c2C(C)C)cn2ncnc12` (single isomer, unassigned) [Example 289], the results for the IC50 against human TLR7, at human TLR8 and on human TLR9 were 5.19 nM, 0.97 nM and 19700 nM, respectively.
Taken in the same sequence, the figures for `Cc1cc(-c2[nH]nc(C3CCC(N4CCOCC4)CC3)c2C(C)C)cn2ncnc12` (single isomer, unassigned) [Example 290] were 8.56 nM, 1.09 nM and 22100 nM.
For `Cc1cc(-c2[nH]nc(C3CCC(N4CCOCC4)CC3)c2C(C)C)cn2ncnc12` (single isomer, unassigned) [Example 291], in that order: 7.65 nM, 0.39 nM and 16800 nM.
Taken in the same sequence, the figures for `Cc1cc(-c2[nH]nc(C3CCC(N4CCC(N(C)C)CC4)CC3)c2C(C)C)cn2ncnc12` (single isomer, unassigned) [Example 292] were 3.18 nM, 0.46 nM and 7520 nM.
For the compound `Cc1cc(-c2[nH]nc(C3CCC(N4CCC(N(C)C)CC4)CC3)c2C(C)C)cn2ncnc12` (single isomer, unassigned) [Example 293], the IC50 at human TLR7 turned out to be 2.98 nM; at human TLR8 it was 0.38 nM; against human TLR9 it was 6650 nM.
Regarding `Cc1cc(-c2[nH]nc(C(=O)NCC3CCCCN3)c2C(C)C)cn2ncnc12` (centres unmarked) [Example 56], the half-inhibitory concentration (IC50) against human TLR7 is 4.36 nM; on human TLR8, 3.43 nM.
